# “And” between values parts separate entries of the source, which are not always exact repeats. Identical values can stand only once. Like-named read-outs stand apart in the source and are kept apart here.
# Columns and labels:
# [1] = target: T1, human 5-HT1A receptor (Homo sapiens, UniProt P08908); test: Competitive radioligand binding; conditions: for fold lower affinity than LSD for the 5-HT1A receptor: human 5-HT1A, relative to LSD
# T1 sequence (P08908 1-422): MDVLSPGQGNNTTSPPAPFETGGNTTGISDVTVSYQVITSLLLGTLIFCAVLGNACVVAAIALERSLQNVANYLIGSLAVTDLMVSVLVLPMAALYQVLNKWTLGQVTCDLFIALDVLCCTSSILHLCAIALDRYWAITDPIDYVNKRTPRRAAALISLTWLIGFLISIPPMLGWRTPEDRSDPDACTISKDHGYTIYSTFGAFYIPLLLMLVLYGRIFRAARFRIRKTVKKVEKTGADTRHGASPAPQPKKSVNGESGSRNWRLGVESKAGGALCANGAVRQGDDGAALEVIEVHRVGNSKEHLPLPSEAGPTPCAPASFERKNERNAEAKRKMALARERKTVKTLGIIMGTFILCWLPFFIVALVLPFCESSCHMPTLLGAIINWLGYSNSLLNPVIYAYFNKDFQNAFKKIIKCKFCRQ
# [2] = target: human 5-HT2A receptor (Homo sapiens, UniProt P28223); test: Competitive radioligand binding
# [3] = target: T2, human 5-HT2C receptor (Homo sapiens, UniProt P28335); test: biochemical; type: binding
# T2 sequence (P28335 33-458): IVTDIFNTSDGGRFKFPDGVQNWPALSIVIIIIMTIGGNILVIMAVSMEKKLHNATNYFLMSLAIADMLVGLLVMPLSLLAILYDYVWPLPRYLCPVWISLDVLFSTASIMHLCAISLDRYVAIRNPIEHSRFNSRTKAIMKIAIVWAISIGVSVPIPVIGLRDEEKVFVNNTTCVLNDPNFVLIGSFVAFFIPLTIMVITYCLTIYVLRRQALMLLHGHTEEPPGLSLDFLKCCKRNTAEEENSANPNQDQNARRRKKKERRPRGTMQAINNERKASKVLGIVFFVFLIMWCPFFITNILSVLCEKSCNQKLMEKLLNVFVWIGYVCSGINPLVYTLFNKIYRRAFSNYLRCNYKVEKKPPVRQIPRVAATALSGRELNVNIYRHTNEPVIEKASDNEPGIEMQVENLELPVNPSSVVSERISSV
# [4] = target: human 5-HT2A (h5-HT2A) (Homo sapiens, UniProt P28223); test: Gq-mediated calcium flux in Flp-In T-REx 293 cells; type: cell-based; conditions: for EC50: Ca^2+ flux; for Emax % 5-HT: percent 5-HT maximum response
# [5] = target: mouse 5-HT2A (m5-HT2A) (Mus musculus, UniProt P35363); test: Gq-mediated calcium flux in Flp-In T-REx 293 cells; type: cell-based; conditions: for Emax % 5-HT: percent 5-HT maximum response
# [6] = target: human 5-HT2B (h5-HT2B) (Homo sapiens, UniProt P41595); test: Gq-mediated calcium flux in Flp-In T-REx 293 cells; type: cell-based; conditions: for agonist activity: Ca^2+ flux
# [7] = target: T3, human 5-HT2C INI (h5-HT2C) (Homo sapiens, UniProt P28335); type: cell-based; conditions: h5-HT2C, Ca^2+ flux
# T3 sequence (P28335 33-458): T2 sequence (P28335 33-458)
# [8] = tested on: male C57BL/6J mice; conditions: HTR, cited from earlier work; for ED50 μg/kg (95% CI): hemitartrate (2:1) salt
# [9] = tested on: male C57BL/6J mice; test: Head-twitch response; type: in vivo, mouse; conditions: for HTR Counts (mean ± SEM): 30 min session; for HTR induced by ALD-52 after M100,907 pretreatment: 0.1 mg/kg M100,907 SC pretreatment, then 0.3 mg/kg ALD-52; for ED50: Mus musculus
# [10] = tested on: human subjects; conditions: humans, cited from earlier work; for active doses: ref Rothlin (1957)
# [11] = tested on: mice; conditions: quantal scoring; ref Corne and Pickering (1967); cited from earlier work
# [12] = cited from earlier work
# [13] = target: 5-HT2A; conditions: ref Johnson et al., 1994, cited from earlier work; for Ki: human 5-HT2A receptor vs. [^3H] ketanserin
# [14] = ref Halberstadt and Geyer (2013)
# Sequence of mouse 5-HT2A (m5-HT2A) (P35363 whole entry): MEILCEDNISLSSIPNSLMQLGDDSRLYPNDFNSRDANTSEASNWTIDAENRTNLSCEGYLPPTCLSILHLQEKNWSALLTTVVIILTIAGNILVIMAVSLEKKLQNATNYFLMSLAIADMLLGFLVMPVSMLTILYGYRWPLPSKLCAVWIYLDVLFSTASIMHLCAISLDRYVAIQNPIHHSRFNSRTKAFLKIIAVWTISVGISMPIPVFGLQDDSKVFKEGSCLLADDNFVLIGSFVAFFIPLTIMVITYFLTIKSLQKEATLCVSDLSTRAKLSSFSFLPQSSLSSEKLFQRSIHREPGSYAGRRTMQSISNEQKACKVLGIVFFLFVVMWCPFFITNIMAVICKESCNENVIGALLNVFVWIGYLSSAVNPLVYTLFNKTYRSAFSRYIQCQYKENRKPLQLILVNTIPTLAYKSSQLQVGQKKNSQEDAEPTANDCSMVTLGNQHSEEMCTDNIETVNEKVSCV
# Sequence of human 5-HT2B (h5-HT2B) (P41595 whole entry): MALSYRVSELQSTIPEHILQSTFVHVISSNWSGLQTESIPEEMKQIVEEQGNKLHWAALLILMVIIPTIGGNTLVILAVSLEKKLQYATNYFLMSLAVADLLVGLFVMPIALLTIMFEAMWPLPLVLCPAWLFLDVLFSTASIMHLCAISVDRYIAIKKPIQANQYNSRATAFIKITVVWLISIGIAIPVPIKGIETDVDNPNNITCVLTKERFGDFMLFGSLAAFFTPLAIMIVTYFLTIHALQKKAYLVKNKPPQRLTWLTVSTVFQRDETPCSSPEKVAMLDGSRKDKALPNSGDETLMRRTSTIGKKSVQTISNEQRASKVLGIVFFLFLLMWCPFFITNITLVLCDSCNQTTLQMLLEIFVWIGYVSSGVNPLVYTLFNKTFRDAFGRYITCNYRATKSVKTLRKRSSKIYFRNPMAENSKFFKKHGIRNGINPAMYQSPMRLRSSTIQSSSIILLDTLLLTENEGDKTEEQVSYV
# Sequence of human 5-HT2A (h5-HT2A) (P28223 whole entry): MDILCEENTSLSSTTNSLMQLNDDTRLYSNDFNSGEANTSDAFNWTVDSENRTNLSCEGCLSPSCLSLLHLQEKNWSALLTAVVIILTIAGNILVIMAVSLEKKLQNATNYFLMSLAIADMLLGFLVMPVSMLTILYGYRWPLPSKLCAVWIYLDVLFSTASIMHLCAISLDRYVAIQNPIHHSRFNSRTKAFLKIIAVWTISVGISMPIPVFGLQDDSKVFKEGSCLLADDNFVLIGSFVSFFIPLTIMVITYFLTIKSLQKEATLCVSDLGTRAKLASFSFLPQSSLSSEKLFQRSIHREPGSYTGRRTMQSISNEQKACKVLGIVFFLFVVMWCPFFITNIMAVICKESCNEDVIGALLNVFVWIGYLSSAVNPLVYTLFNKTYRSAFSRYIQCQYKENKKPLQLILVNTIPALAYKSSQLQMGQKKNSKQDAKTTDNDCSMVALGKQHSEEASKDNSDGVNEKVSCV
# Sequence of human 5-HT2A receptor (P28223 whole entry): as above
SMILES,Ki [1] [nM],fold lower affinity than LSD for the 5-HT1A receptor [1] [fold],Ki [2] [nM],Ki [3] [nM],"EC50 ([4]; EC50, nM) [nM]",EC50 ([4]; pEC50 ± SEM) [nM],Emax % 5-HT [4],Emax % 5-HT [5] [% 5-HT],agonist activity [6],agonist activity [7],"HTR induced by ALD-52 after M100,907 pretreatment [9]",active doses [10] [mg/kg],Ki [13] [nM],further results
"CCC(=O)n1cc2c3c(cccc31)C1=C[C@@H](C(=O)N(CC)CC)CN(C)[C@@H]1C2 [1P-LSD, 1-propanoyl-D-lysergic acid diethylamide]",637 ± 97,67,196 ± 19,13 ± 1.7,11,10.2,11 % 5-HT and 11 ± 1 % 5-HT,23 ± 1,no agonist activity,no agonist activity,,,,"ED50 μg/kg (95% CI) ([8]; ref Brandt et al. (2016)): 158.9 (65.0–388.8) μg/kg; ED50 nmol/kg (95% CI) ([8]; ref Brandt et al. (2016)): 349.6 (143.0–855.4) nmol/kg; Molar potency (relative to LSD) ([8]; ref Brandt et al. (2016)): one-third; Molar potency (relative to LSD) ([8]; ref Brandt et al. (2016), listed as 1-Propanoyl-LSD): 0.38"
"CCN(CC)C(=O)[C@@H]1C=C2c3cccc4c3c(cn4C(C)=O)C[C@H]2N(C)C1 [ALD-52, 1-Acetyl-D-lysergic acid diethylamide]",1050,111,174 ± 43,10.2 ± 3.5,38,35.5,25 % 5-HT and 25 ± 2 % 5-HT,29 ± 1,no agonist activity,no agonist activity,did not induce head twitches,0.0005 to 0.001,,"EC50 ([5]; EC50, nM, Ca^2+ flux): 12 nM; EC50 ([5]; pEC50 ± SEM, Ca^2+ flux): 11.5 nM; HTR Counts (mean ± SEM) ([9]; 0.03 mg/kg IP): 8.4 ± 1.6; HTR Counts (mean ± SEM) ([9]; 0.1 mg/kg IP): 12.6 ± 1.1; HTR Counts (mean ± SEM) ([9]; 0.3 mg/kg IP): 25.4 ± 3.2; Molar potency (relative to LSD) ([9]; HTR): 0.45; ED50 ([9]; read-out: ED50 nmol/kg (95% CI)): 297 nmol/kg; ED50 ([9]; read-out: ED50 μg/kg (95% CI)): 131 µg/kg; potency relative to LSD ([10]; ref Abramson (1959)): 91%; potency relative to LSD ([10]; ref Isbell et al. (1959)): equipotent; induction of head twitches in mice [11]: does not induce head twitches"
"CCN(CC)C(=O)[C@@H]1C=C2c3cccc4[nH]cc(c34)C[C@H]2N(C)C1 [LSD, D-lysergic acid diethylamide, reference compound]",,,,,,,94 % 5-HT and 94 ± 1 % 5-HT,86 ± 3,,,,0.0005 to 0.001,,"EC50 ([5]; Ca^2+ flux): 4.25 nM; pEC50 ± SEM ([5]; Ca^2+ flux): 8.37 ± 0.10; Emax % 5-HT ([6]; percent 5-HT maximum response, N.A. = No Activity): 78 ± 2 % 5-HT; ED50 μg/kg (95% CI) [8, 14]: 52.9 (38.9–72.0) μg/kg; ED50 nmol/kg (95% CI) [8, 14]: 132.8 (97.6–180.7) nmol/kg; peak plasma level of LSD ([12]; humans, intravenous 2 μg/kg LSD, ref Aghajanian and Bing (1964)): 9.5 ng/mL; LSD in plasma ([12]; participants who had ingested 200 μg, ref Dolder et al., 2016): 4.5 ng/mL"
CN1C[C@H](C(=O)NC2CCCCC2)C[C@@H]2c3cccc4[nH]cc(c34)C[C@H]21 [LY193525],,,,,,,,,,,,,0.73,
"COc1cccc([C@H](O)C2CCN(CCc3ccc(F)cc3)CC2)c1OC [M100,907, reference compound]",,,,,,,,,,,blocked,,,
CC(C)n1cc2c3c(cccc31)[C@H]1C[C@@H](C(=O)NC3CCCCC3)CN(C)[C@@H]1C2 [amersergide],,,,,,,,,,,,,16.2,fold lower affinity than LY193525 ([13]; human 5-HT2A receptor): ~ 20 fold

# Reference: article PMC9191647 (Neuropharmacology, 2019)
